Series [1] concerns non-small cell lung cancer. Kind of series: Phase I study of ganetespib with cisplatin/pemetrexed, carboplatin/pemetrexed or carboplatin/paclitaxel. The class given is in vivo, patients. Conditions: combination with cisplatin/pemetrexed. An excerpt:
This is a Phase 1, open-label, dose-escalation study in patients with advanced NSCLC with adenocarcinoma histology.
Cohort 1: patients treated with ganetespib, cisplatin and pemetrexed
Cohort 2: patients treated with ganetespib, carboplatin and pemetrexed
Cohort 3: patients treated with ganetespib, carboplatin and paclitaxel
In Cohort 1, one treatment cycle consists of treatment with ganetespib, cisplatin and pemetrexed on Day 1, and ganetespib on Day 15
In Cohort 2, one treatment cycle consists of treatment with ganetespib, carboplatin and pemetrexed on Day 1, and ganetespib on Day 15
In Cohort 3, one treatment cycle consists of treatment with ganetespib, carboplatin and paclitaxel on Day 1, and ganetespib on Day 15
Treatment cycles are repeated every 3 weeks. The total planned number of combination cycles is 4. Ganetespib is administered on Days 1 and 15 of each cycle; cisplatin and pemetrexed, carboplatin and pemetrexed, or carboplatin and paclitaxel are administered on Day 1 of each cycle. Each agent is administered as a separate infusion (see Dose-Escalation Table below). […]
Duration of treatment: the duration of the combination treatment for each regimen is 4 treatment cycles, if tolerated. Patients who complete 4 combination-treatment cycles are evaluated for tumor disease response, general performance status and toxicities. […]

The test system of series [2] is ovarian, fallopian tube or peritoneal cancer. Kind of series: Phase I/II study of ganetespib in combination with paclitaxel. In kind it is in vivo. Conditions: combination with weekly paclitaxel 80 mg/m^2. As to the method:
A Phase I/II trial of weekly paclitaxel in combination with ganetespib in patients with recurrent, platinum-resistant ovarian, fallopian tube or primary peritoneal cancer is performed. A total of up to 74 patients (up to 18 Phase I patients and up to 56 Phase II patients) with recurrent, platinum-resistant epithelial ovarian, primary peritoneal and fallopian tube carcinoma is enrolled.
Phase I Treatment: Paclitaxel IV given over 1 hour at 80 mg/m^2 days 1, 8 and 15 of a 28-day cycle. Ganetespib IV at a starting dose of 100 mg/m^2 on days 1, 8 and 15 of a 28-day cycle. Ganetespib escalation will follow a modified 3+3 design and escalate from 100 mg/m^2 to 125 mg/m^2 to 150 mg/m^2.
Phase II treatment (after MTD): Phase II TPaclitaxel IV given over 1 hour at 80 mg/m^2 days 1, 8 and 15 of a 28-day cycle. PLUS ganetespib IV at MTD/MED from Phase I on days 1, 8 and 15 of a 28-day cycle.

Consider `CC(C)c1cc(-c2n[nH]c(=O)n2-c2ccc3c(ccn3C)c2)c(O)cc1O` [ganetespib], for which, in series [1], the efficacy entry was “efficacious” and the safety profile result is “good safety profile”. In series [2], the efficacy result was “efficacious” and the safety profile entry is “good safety profile”.

(Values after patent US20160120848A1, “SPECIFIC CANCER TREATMENT REGIMES WITH GANETESPIB” (SYNTA PHARMACEUTICALS CORP., priority 2013, published 2016).)
